Common to all, as to type: in vivo
One assay relates to Plutella xylostella. In words: Pesticidal test against Plutella xylostella (cabbage leaf immersion). Conditions: 144 h, 3-stage larvae on treated cabbage leaf, 25° C., after 6 days, read-out: pesticidal rate. The procedure:
Pesticidal Test Against Plutella xylostella A piece of a cabbage leaf was immersed for 30 seconds in a chemical solution in which a test compound had been diluted at a predetermined concentration, and air-dried, and then put into a 7 cm polyethylene cup having a filter paper laid on the bottom thereof, and 3-stage larvae of Plutella xylostella were released. They were left to stand in a thermostatic chamber at 25° C., and the numbers of the living pests and the dead pests were examined after 6 days. The test was carried out with five larvae per group in two replicates.

The test system of assay [1] is Spodoptera litura. As to the kind of experiment: Pesticidal test against Spodoptera litura (cabbage leaf immersion). Conditions: 144 h, 2-stage larvae on treated cabbage leaf, 25° C., after 6 days, read-out: pesticidal rate. As for the experimental part:
Pesticidal Test Against Spodoptera litura A piece of a cabbage leaf was immersed for 30 seconds in a chemical solution in which a test compound had been diluted at a predetermined concentration, and air-dried, and then put into a 7 cm polyethylene cup having a filter paper laid on the bottom thereof, and 2-stage larvae of Spodoptera litura were released. They were left to stand in a thermostatic chamber at 25° C., and the numbers of the living pests and the dead pests were examined after 6 days. The test was carried out with five larvae per group in two replicates.

The subject of another assay is Musca domestica. As to the kind of experiment: Pesticidal test against Musca domestica (petri dish residue). Conditions: 24 h, acetone solution dried in petri dish, female adults, 25° C., after 1 day, read-out: pesticidal rate. As for the experimental part:
Pesticidal Test Against Musca domestica
1 ml of an acetone solution in which a test compound had been diluted at a predetermined concentration was added dropwise to a petri dish having a diameter of 9 cm, and air-dried, and then the female adults of Musca domestica were released and the petri dish was capped. They were left to stand in a thermostatic chamber at 25° C., and the numbers of the living pests and the dead pests were examined after 1 day. The test was carried out with […] in two replicates.

Assay [2] relates to Spodoptera litura. In words: Pesticidal test of penetration migration against Spodoptera litura (radish seedling root immersion). Conditions: 72 h, radish seedling root immersed 2 days, leaf fed to 2-stage larvae, 25° C., after 3 days, read-out: pesticidal rate. As for the experimental part:
Pesticidal Test of Penetration Migration against Spodoptera litura A root portion of a radish seedling was immersed for 2 days in a chemical solution in which a test compound had been diluted at a predetermined concentration, then the leaf was cut and put into a 7 cm polyethylene cup having a filter paper laid on the bottom thereof, and 2-stage larvae of Spodoptera litura were released. They were left to stand in a thermostatic chamber at 25° C., and the numbers of the living pests and the dead pests were examined after 3 days. The test was carried out with five larvae per group in two replicates.

Pest or weed control data for 17 compounds are collected here from US9084420B2, “Amide derivative, pest control agent containing the amide derivative, and pest controlling method” (Mitsui Chemicals Agro, Inc., priority 2008, dated 2015).

Where only a bound is given, the exact number is not on record here.

On to `C/C(CCN(C(=O)c1ccccc1)c1cccc(C(=O)Nc2c(C)cc(C(F)(C(F)(F)F)C(F)(F)F)cc2C)c1)=N\O` [5-105, N-(3-(2,6-dimethyl-4-(perfluoropropan-2-yl)phenylcarbamoyl)phenyl)-N-(3-(hydroxyimino)butyl)benzamide], for which the pest or weed control at 100 ppm in the assay with Plutella xylostella and in the assay with Spodoptera litura [1] was at least 70% in each case. Besides, the pest or weed control at 1000 ppm with Musca domestica was at least 70%.

Turning to `COC(=O)CCN(C(=O)c1ccccc1)c1cccc(C(=O)Nc2c(I)cc(C(F)(C(F)(F)F)C(F)(F)F)cc2C(F)(F)F)c1` [5-80, methyl 3-(N-(3-(2-iodo-4-(perfluoropropan-2-yl)-6-(trifluoromethyl)phenylcarbamoyl)phenyl)benzamide)propanoate], the pest or weed control at 100 ppm in the assay on Plutella xylostella and in the assay on Spodoptera litura [1] was at least 70% in each case. Also, in the assay on Musca domestica, the pest or weed control at 1000 ppm was at least 70%.

Turning to `NC(=O)CCN(C(=O)c1ccccc1)c1cccc(C(=O)Nc2c(Br)cc(C(F)(C(F)(F)F)C(F)(F)F)cc2Br)c1F` [1-163, 3-(N-(3-amino-3-oxopropyl)benzamide)-N-(2,6-dibromo-4-(perfluoropropan-2-yl)phenyl)-2-fluorobenzamide], the pest or weed control at 1 ppm in the assay with Spodoptera litura [2] is at least 70%. Moreover, the pest or weed control at 100 ppm in the assay with Plutella xylostella and in the assay with Spodoptera litura [1] was at least 70% in each case.

`Cc1cc(C(F)(C(F)(F)F)C(F)(F)F)cc(C)c1NC(=O)c1cccc(N(CCCC(N)=O)C(=O)c2ccccc2)c1` [6-16, N-(4-amino-4-oxobutyl)-N-(3-(2,6-dimethyl-4-(perfluoropropan-2-yl)phenylcarbamoyl)phenyl)benzamide]: the pest or weed control at 100 ppm with Plutella xylostella and in the assay on Spodoptera litura [1] was at least 70% in each case. Besides, in the assay on Musca domestica, the pest or weed control at 1000 ppm was at least 70%.

Take `Cc1cc(C(F)(C(F)(F)F)C(F)(F)F)cc(C)c1NC(=O)c1cccc(N(CCC(N)=O)C(=O)c2ccccc2)c1F` [1-21, 3-(N-(3-amino-3-oxopropyl)benzamide)-N-(2,6-dimethyl-4-(perfluoropropan-2-yl)phenyl)-2-fluorobenzamide]: the pest or weed control at 1 ppm in the assay on Spodoptera litura [2] was at least 70%. In addition, the pest or weed control at 100 ppm in the assay on Plutella xylostella and with Spodoptera litura [1] was at least 70% each time.

With `CC(C)(C)OC(=O)C(CN(C(=O)c1cccc(C#N)c1)c1cccc(C(=O)Nc2c(Br)cc(C(F)(C(F)(F)F)C(F)(F)F)cc2Br)c1F)C(=O)OC(C)(C)C` [6-44, di-tert-butyl 2-((3-cyano-N-(3-(2,6-dibromo-4-(perfluoropropan-2-yl)phenylcarbamoyl)-2-fluorophenyl)benzamide)methyl)malonate], the pest or weed control at 100 ppm in the assay with Plutella xylostella and in the assay on Spodoptera litura [1] was at least 70% throughout. The pest or weed control at 1000 ppm with Musca domestica is at least 70%.

On to `NC(=O)CCN(C(=O)c1ccccc1)c1cccc(C(=O)Nc2c(Br)cc(C(F)(C(F)(F)F)C(F)(F)F)cc2C(F)(F)F)c1F` [1-171, 3-(N-(3-amino-3-oxopropyl)benzamide)-N-(2-bromo-4-(perfluoropropan-2-yl)-6-(trifluoromethyl)phenyl)-2-fluorobenzamide], for which the pest or weed control at 1 ppm in the assay with Spodoptera litura [2] is at least 70%. For the same compound, the pest or weed control at 100 ppm in the assay with Plutella xylostella and in the assay with Spodoptera litura [1] was at least 70% each time.

As to `N#Cc1ccc(C(=O)N(CCS(N)(=O)=O)c2cccc(C(=O)Nc3c(Br)cc(C(F)(C(F)(F)F)C(F)(F)F)cc3Br)c2F)cc1` [2-133, 3-(4-cyano-N-(2-sulfamoylethyl)benzamide)-N-(2,6-dibromo-4-(perfluoropropan-2-yl)phenyl)-2-fluorobenzamide], the pest or weed control at 1 ppm with Spodoptera litura [2] was at least 70%. The pest or weed control at 100 ppm in the assay on Plutella xylostella and in the assay with Spodoptera litura [1] was at least 70% in each case.

On to `Cc1cc(C(F)(C(F)(F)F)C(F)(F)F)cc(C)c1NC(=O)c1cccc(N(CCC#N)C(=O)c2ccccc2)c1` [5-8, N-(2-cyanoethyl)-N-(3-(2,6-dimethyl-4-(perfluoropropan-2-yl)phenylcarbamoyl)phenyl)benzamide], for which the pest or weed control at 100 ppm in the assay on Plutella xylostella and with Spodoptera litura [1] was at least 70% throughout. The pest or weed control at 1000 ppm in the assay with Musca domestica is at least 70%.

For the compound `CSCCN(C(=O)c1ccccc1)c1cccc(C(=O)N(C)c2c(C)cc(C(F)(C(F)(F)F)C(F)(F)F)cc2C)c1` [5-71, N-(2,6-dimethyl-4-(perfluoropropan-2-yl)phenyl)-N-methyl-3-(N-(2-(methylthio)ethyl)benzamide)benzamide], the pest or weed control at 100 ppm with Plutella xylostella and in the assay on Spodoptera litura [1] was at least 70% in each case.

On to `O=C(O)CCN(C(=O)c1ccccc1)c1cccc(C(=O)Nc2c(I)cc(C(F)(C(F)(F)F)C(F)(F)F)cc2C(F)(F)F)c1` [5-88, 3-(N-(3-(2-iodo-4-(perfluoropropan-2-yl)-6-(trifluoromethyl)phenylcarbamoyl)phenyl)benzamide)propanoic acid], for which the pest or weed control at 100 ppm with Plutella xylostella and with Spodoptera litura [1] was at least 70% throughout.

In the case of `CC(=O)CCN(C(=O)c1ccccc1)c1cccc(C(=O)Nc2c(C)cc(C(F)(C(F)(F)F)C(F)(F)F)cc2C)c1` [5-100, N-(3-(2,6-dimethyl-4-(perfluoropropan-2-yl)phenylcarbamoyl)phenyl)-N-(3-oxobutyl)benzamide], the pest or weed control at 100 ppm in the assay with Plutella xylostella and in the assay with Spodoptera litura [1] was at least 70% each time. In addition, the pest or weed control at 1000 ppm in the assay with Musca domestica was at least 70%.

Take `Cc1cc(C(F)(C(F)(F)F)C(F)(F)F)cc(C)c1NC(=O)c1cccc(N(CCC(N)=O)C(=O)c2ccccc2)c1` [1-1, N-(3-amino-3-oxopropyl)-N-(3-(2,6-dimethyl-4-(perfluoropropan-2-yl)phenylcarbamoyl)phenyl)benzamide]: the pest or weed control at 100 ppm with Plutella xylostella and with Spodoptera litura [1] was at least 70% each time.

Take `Cc1cc(C(F)(C(F)(F)F)C(F)(F)F)cc(C)c1NC(=O)c1cccc(N(CCC(=O)OCC(NC(=O)OC(C)(C)C)C(=O)OC(C)(C)C)C(=O)c2ccccc2)c1` (stereo not drawn) [5-22, tert-butyl 2-(tert-butoxycarbonylamino)-3-(3-(N-(3-(2,6-dimethyl-4-(perfluoropropan-2-yl)phenylcarbamoyl)phenyl)benzamide)propanoyloxy)propanoate]: the pest or weed control at 100 ppm in the assay with Plutella xylostella and in the assay with Spodoptera litura [1] was at least 70% throughout.

Take `COC(=O)CN(C(=O)c1ccccc1)c1cccc(C(=O)N(CC(=O)OC)c2c(C)cc(C(F)(C(F)(F)F)C(F)(F)F)cc2C)c1F` [8-12, methyl 2-(N-(3((2,6-dimethyl-4-(perfluoropropan-2-yl)phenyl)(2-methoxy-2-oxoethyl)carbamoyl)-2-fluorophenyl)benzamide)acetate]: the pest or weed control at 100 ppm in the assay with Plutella xylostella and with Spodoptera litura [1] was at least 70% each time.

As to `N#Cc1cccc(C(=O)N(CCC(=O)NO)c2cccc(C(=O)Nc3c(Br)cc(C(F)(C(F)(F)F)C(F)(F)F)cc3Br)c2F)c1` [5-33, 3-(3-cyano-N-(3-(hydroxyamino)-3-oxopropyl)benzamide)-N-(2,6-dibromo-4-(perfluoropropan-2-yl)phenyl)-2-fluorobenzamide], the pest or weed control at 1 ppm with Spodoptera litura [2] is at least 70%. Also, the pest or weed control at 100 ppm in the assay on Plutella xylostella and in the assay with Spodoptera litura [1] was at least 70% in each case.

With `CSCN(C(=O)c1ccccc1)c1cccc(C(=O)N(C)c2c(C)cc(C(F)(C(F)(F)F)C(F)(F)F)cc2C)c1` [6-6, N-(2,6-dimethyl-4-(perfluoropropan-2-yl)phenyl)-N-methyl-3-(N-(methylthiomethyl)benzamide)benzamide], the pest or weed control at 100 ppm with Plutella xylostella and in the assay with Spodoptera litura [1] was at least 70% throughout.
